From PubChem BioAssay (NCI) come the findings set out here.

Values joined by “and” are separate entries in the source; they are usually repeats but may differ in a detail not shown here. Identical values can stand only once.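 Cells were grown in 96-well plates and exposed to each compound for 48 hours at five concentrations; endpoints were interpolated linearly between bracketing concentrations, or set to the highest concentration if not reached. TGI is the concentration that stops growth completely.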

What all share (assay): NCI anticancer screen, dose series, 48 h
Experiment [1] relates to COLO 205 colon.
Experiment [2] deals with K-562 leukemia.
Experiment [3] relates to MDA-MB-435.
Experiment [4] deals with OVCAR-5 ovarian.
Experiment [5] has as its system SW-620 colon.
The test system of experiment [6] is U251 CNS.
Experiment [7] relates to UO-31 renal.
For experiment [8], the system named is TK-10 renal.

For `CC(=O)Nc1c(C)cc2c(nc3n2CCC3O)c1[N+](=O)[O-]` (centres undefined), the TGI in experiment [1], in experiment [2], in experiment [3], in experiment [4], in experiment [5] and in experiment [6] was greater than 100 µM throughout. For the same compound, the TGI in experiment [7] is greater than 100 µM.
Turning to `COc1cc(/C=c2\sc3n(c2=O)C(c2ccc(Cl)cc2)C2=C(CCCC2C)N=3)cc(OC)c1OC` (centres undefined), the TGI in experiment [2], in experiment [3], in experiment [4], in experiment [5], in experiment [8] and in experiment [6] was greater than 100 µM throughout. This compound had a TGI in experiment [7] greater than 100 µM.
As for `C(=C\c1ccco1)/c1cccc(/C=C/c2ccco2)n1`, the TGI in experiment [1], in experiment [2], in experiment [3], in experiment [4], in experiment [5] and in experiment [8] was greater than 50 µM throughout. Further, the TGI in experiment [7] is greater than 50 µM.
Turning to `C=C1CCC([N+](=O)[O-])[C@](C)(N=O)CC[C@@H]2C1CC2(C)C` (some centres undefined), the TGI in experiment [1] was 60.5 µM; in experiment [2], 79.1 µM; in experiment [4] it was 36.1 µM; in experiment [5] it was 47.2 µM; in experiment [8], 76.1 µM; in experiment [6] it was 48.2 µM. The compound also displayed a TGI in experiment [7] of 31.7 µM.
As to `COC(=O)C1(C)C=CC(=O)C2(C)C1C(O)C1OC3CC(c4ccoc4)C(C)=C3C1(C)C2CC(=O)O` (centres undefined), the TGI in experiment [1], in experiment [3], in experiment [4], in experiment [5], in experiment [8] and in experiment [6] was greater than 100 µM in each case. Further, the TGI in experiment [7] was greater than 100 µM.
With `COC(=O)C1OC(O[C@H]2CC[C@]3(C)[C@H]4CC=C5[C@@H]6CC(C)(C)CC[C@]6(C(=O)OC6OCC(O)C(O)C6OC6OC(C)C(OC7OCC(O)C(O)C7O)C(O)C6O)CC[C@@]5(C)[C@]4(C)CC[C@H]3C2(C)C)C(O)C(O)C1O` (some centres undefined), the TGI in experiment [1] is 25.8 µM and 30.6 µM; in experiment [2] it was 64.6 µM and 62.2 µM; in experiment [3], 33.8 µM and 32.1 µM; in experiment [4], 31.4 µM and 42.8 µM; in experiment [5], 39.5 µM and 48.7 µM; in experiment [6] it was 33.3 µM and 33.8 µM. For the same compound, the TGI in experiment [7] is 26.5 µM and 36 µM.
Take `O=C(O)CN1C(=O)C(Cc2ccc(O)cc2)N=C(c2cccc(O)c2)c2ccccc21` (centres undefined): the TGI in experiment [2], in experiment [3], in experiment [4], in experiment [5], in experiment [8] and in experiment [6] was greater than 100 µM in each case. Besides, the TGI in experiment [7] is greater than 100 µM.
As to `Oc1ccc2c(c1)-c1c(c3ccccc3n1CCN1CCOCC1)CC2`, the TGI in experiment [1] is greater than 100 µM; in experiment [2], greater than 100 µM; in experiment [3], greater than 100 µM; in experiment [4], 61.3 µM; in experiment [8], 94.4 µM; in experiment [6] it was greater than 100 µM. In addition, in experiment [7], the TGI was greater than 100 µM.
Take `O=C(NNC(=S)NC1CCCCC1)c1csc(NC(=S)NC2CCCCC2)n1`: the TGI is 14.1 µM in experiment [1]; 26.6 µM in experiment [3]; 40.1 µM in experiment [4]; 19.5 µM in experiment [5]; greater than 100 µM in experiment [8]; 20.2 µM in experiment [6]. The same compound yielded a TGI in experiment [7] of 11.2 µM.
As to `C=CCc1cccc2cc(C(=O)Nc3ccccn3)c(=N)oc12`, the TGI in experiment [1], in experiment [2], in experiment [3], in experiment [4], in experiment [5] and in experiment [6] was greater than 100 µM throughout.
With `COc1ccc(/C=C2\CCC(C)C3=C2N=c2s/c(=C/c4cccc(Br)c4)c(=O)n2C3c2ccc(OC)c(OC)c2)cc1OC` (centres undefined), the TGI in experiment [2], in experiment [3], in experiment [4], in experiment [5], in experiment [8] and in experiment [6] was greater than 100 µM each time.
Take `CC(=O)O[C@H]1[C@H](OC(=O)CC(C)(O)CC(=O)O)C[C@]2(C)C3=C(CCC2C1(C)C)[C@]1(C)CC[C@H]([C@H]2CC[C@H](C(C)(C)O)OC2O)[C@@]1(C)[C@@H](O)C3` (some centres undefined): the TGI in experiment [2] is 76.5 µM; in experiment [3], 35.1 µM; in experiment [4], 31.7 µM; in experiment [5], 27.2 µM; in experiment [8], 63.4 µM; in experiment [6] it was 35.5 µM. This compound also showed a TGI in experiment [7] of 25.8 µM.
For `CO/N=C(\C)c1cccc(Nc2c3ccccc3nc3occc23)c1`, the TGI in experiment [1] is 17.6 µM; in experiment [2], greater than 100 µM; in experiment [3], 6 µM; in experiment [4] it was 46.8 µM; in experiment [8], 48.8 µM; in experiment [6], 38.6 µM. In experiment [7], this compound gave a TGI of 31.5 µM.
For the compound `O=C1Oc2cc(O)cc(/C=C/c3ccc(O)cc3)c2[C@@]12c1c(O)cc(O)cc1OC2c1cccc(O)c1` (some centres undefined), the TGI in experiment [1] is 69.7 µM; in experiment [2] it was greater than 100 µM; in experiment [3], 66.1 µM; in experiment [4], 92.4 µM; in experiment [8], greater than 100 µM; in experiment [6], greater than 100 µM. In experiment [7], this compound came in with a TGI greater than 100 µM.
`OC(c1cc(C23CC4CC(CC(C4)C2)C3)nc2c(Cl)cc(Cl)cc12)C1CCCCN1` (centres undefined): the TGI in experiment [2] was 3.07 µM; in experiment [4], 3.17 µM; in experiment [8], 3.23 µM; in experiment [6] it was 3 µM; in experiment [7], 2.35 µM.
As for `CCOC(=O)c1ccc(NCC#CCN2CCCCC2)cc1`, the TGI in experiment [1], in experiment [2], in experiment [3], in experiment [4], in experiment [5] and in experiment [6] was greater than 100 µM each time. Moreover, the TGI in experiment [7] is greater than 100 µM.
With `CCC(=O)Nc1ccc(N2C(=O)C(Cl)C2c2ccc(SC)cc2)cc1` (centres undefined), the TGI in experiment [1], in experiment [2], in experiment [3], in experiment [4], in experiment [5] and in experiment [7] was greater than 100 µM throughout.
